One experiment relates to MIA-PACA-2 cells. As to the kind of experiment: Cell proliferation assay, MIA-PACA-2 cells (Cell-titer Glo). Type of experiment: cell-based. The note with it: Homo sapiens, 96 h incubation. As for the experimental part: (§1) Pave the MIA-PACA-2 cells into a 96-well ultra-low adsorption plate at 600 cells, 160 μL/well. After incubating overnight, compound solutions of gradient concentration was prepared, and added 40 μL of DMSO solution of the test compound of each concentration to the cells of each well. The final concentration of the compound is 10000, 2000, 400, 80, 16, 3.2, 0.64, 0.12, 0.025, 0 nM (the final concentration of DMSO is 0.25%). Incubated for 96 h at 37° C. and 5% CO2. 50 μL of Cell-titer Glo working solution was added to each well, shaked and mixed, and incubated at room temperature for 10 minutes. The multi-functional microplate reader read the luminescence value, and converted the luminescence value reading into inhibition percentage.
(§2) Inhibition percentage=(maximum value−reading)/(maximum value−minimum value)*100.
(§3) The “maximum value” was the DMSO control, the “minimum value” indicates the cell-free control group.
(§4) Graphpad Prism software was used to perform curve fitting and obtain IC50 value.
Refer to Table 3 for the IC50 data of some compounds in the examples inhibiting MIA-PACA-2 cells.

Another experiment concerns H358 cells. In words: Cell proliferation assay, H358 cells (Cell-titer Glo). Type of experiment: cell-based. The following applies: Homo sapiens, NCI-H358, 96 h incubation. As for the experimental part:
as §1, with “the H358” for “the MIA-PACA-2”, “cells on” for “cells into”, “plate with 2000 cells and 190” for “plate at 600 cells, 160”, “added 10” for “added 40”, “10000, 3333.3, 1111.1, 370.4, 123.5, 41.2, 13.7, 4.6, 1.5,” for “10000, 2000, 400, 80, 16, 3.2, 0.64, 0.12, 0.025,”
as §2, §3, §4
Refer to table 3 for the IC50 data of some compounds in the Examples for inhibiting H358 cells.

Regarding `C=CC(=O)N1CCC2(CC1)CN(c1nc(C3CCN(C)CC3)nc3c(OCC(F)(F)F)c(-c4c(C)ccc5[nH]ncc45)c(C=C)cc13)C2` [Example 51, 1-(2-(7-(5-methyl-1H-indazol-4-yl)-2-(1-methylpiperidin-4-yl)-8-(2,2,2-trifluoroethoxy)-6-vinylquinazolin-4-yl)-2,7-diazspiro [3.5]nonan-2-yl) propyl-2-en-1-one], the figures for the half-inhibitory concentration (IC50) with MIA-PACA-2 cells and with H358 cells were 188 nM and 462 nM, respectively.
Taken in the same sequence, the figures for `C=CC(=O)N1CCN(c2nc(C3CCN(C)CC3)nc3c(OCC(F)(F)F)c(-c4c(C)ccc5[nH]ncc45)c(C=C)cc23)[C@@H](C)C1` [Example 52, 1-((3S)-3-methyl-4-(7-(5-methyl-1H-indazole-4-yl)-2-(1-methylpiperidin-4-yl)-8-(2,2,2-trifluoroethoxy)-6-vinylquinazolin-4-yl)piperazin-1-yl) propyl-2-en-1-one] were 114 nM and 104 nM.
Take `C=CC(=O)N1CC2(CCN(c3nc(C4CCN(C)CC4)nc4c(OCC(F)(F)F)c(-c5c(C)cnc6[nH]ncc56)c(C=C)cc34)CC2)C1` [Example 53, 1-(7-(7-(5-methyl-1H-pyrazolo[3,4-b]pyridin-4-yl)-2-(1-methylpiperidine-4-yl)-8-(2,2,2-trifluoroethoxy)-6-vinylquinazolin-4-yl)-2,7-diazaspiro[3.5]nonan-2-yl)prop-2-en-1-one]: the values for the IC50 with MIA-PACA-2 cells and in the experiment on H358 cells were 105 nM and 163 nM, respectively.
Taken in the same sequence, the figures for `C=CC(=O)N1CC2(CCN(c3nc(C4CCN(C)CC4)nc4c(OCC(F)(F)F)c(-c5c(C)ncc6[nH]ncc56)c(C=C)cc34)CC2)C1` [Example 56, 1-(7-(7-(5-methyl-1H-pyrazolo [3,4-c]pyridin-4-yl)-2-(1-methylpiperidine-4-yl)-8-(2,2,2-trifluoroethoxy)-6-vinylquinazolin-4-yl)-2,7-diazaspiro[3.5]nonan-2-yl) prop-2-en-1-one] were 2580 nM and 2520 nM.
In the case of `C=CC(=O)N1CC2(CCN(c3nc(C4CCN(CCS(C)(=O)=O)CC4)nc4c(OCC(F)(F)F)c(-c5c(C)ccc6[nH]ncc56)c(C=C)cc34)CC2)C1` [Example 57, 1-(7-(7-(5-methyl-1H-indazol-4-yl)-2-(1-(2-(methylsulfonyl)ethyl)piperidine-4-yl)-8-(2,2,2-trifluoroethoxy)-6-vinylquinazolin-4-yl)-2,7-diazaspiro[3.5]nonan-2-yl) prop-2-en-1-one], the IC50 in the experiment on MIA-PACA-2 cells came to 6.8 nM; with H358 cells, 7.3 nM.
Turning to `C=CC(=O)N1CC2(CCN(c3nc(C4CCN(CCC#N)CC4)nc4c(OCC(F)(F)F)c(-c5c(C)ccc6[nH]ncc56)c(C=C)cc34)CC2)C1` [Example 59, 3-(4-(4-(2-acryloyl-2,7-diazazospiro [3.5]nonan-7-yl)-7-(5-methyl-1H-indazole-4-yl)-8-(2,2,2-trifluoroethoxy)-6-vinylquinazolin-2-yl)piperidin-1-yl) propionitrile], the results for the IC50 in the experiment with MIA-PACA-2 cells and with H358 cells were 6.9 nM and 6.4 nM, respectively.
On to `C=CC(=O)N1CC2(CCN(c3nc(C4CCN(CC(C)(C)O)CC4)nc4c(OCC(F)(F)F)c(-c5c(C)ccc6[nH]ncc56)c(C=C)cc34)CC2)C1` [Example 60], for which the results for the IC50 in the experiment on MIA-PACA-2 cells and in the experiment on H358 cells were 4 nM and 4.1 nM, respectively.
In the case of `C=CC(=O)N1CC2(CCN(c3nc(C4CCN(CCO)CC4)nc4c(OCC(F)(F)F)c(-c5c(C)ccc6[nH]ncc56)c(C=C)cc34)CC2)C1` [Example 61, 1-(7-(2-(1-(2-(hydroxyethyl))piperidin-4-yl)-7-(5-methyl-1H-indazole-4-yl)-8-(2,2,2-trifluoroethoxy)-6-vinylquinazolin-4-yl)-2,7-diazarospiro [3.5]nonan-2-yl) propyl-2-en-1-one], the values for the half-inhibitory concentration (IC50) with MIA-PACA-2 cells and in the experiment with H358 cells were 8 nM and 4.9 nM, respectively.
Taken in the same sequence, the figures for `C=CC(=O)N1CC2(CCN(c3nc(C4CCN(C(=O)OC)CC4)nc4c(OCC(F)(F)F)c(-c5c(C)ccc6[nH]ncc56)c(C=C)cc34)CC2)C1` [Example 62, Methyl 4-(4-(2-acryloyl-2,7-diazspiro [3.5]nonan-7-yl)-7-(5-methyl-1H-indazole-4-yl)-8-(2,2,2-trifluoroethoxy)-6-vinylquinazolin-2-yl) piperidine-1-carboxylic acid] were 43.5 nM and 29.3 nM.
For `C=CC(=O)N1CC2(CCN(c3nc(C4CCNCC4)nc4c(OCC(F)(F)F)c(-c5c(C)ccc6[nH]ncc56)c(C=C)cc34)CC2)C1` [Example 63, 1-(7-(7-(5-methyl-1H-indazol-4-yl)-2-(piperidin-4-yl)-8-(2,2,2-trifluoroethoxy)-6-vinylquinazoline-4-yl)-2,7-diazaspiro[3.5]nonan-2-yl)prop-2-en-1-one], the IC50 in the experiment on MIA-PACA-2 cells came out at 406 nM; in the experiment on H358 cells, 187 nM.
For the compound `C=CC(=O)N1CCC(c2nc(N3CCC4(CC3)CN(C(=O)C=C)C4)c3cc(C=C)c(-c4c(C)ccc5[nH]ncc45)c(OCC(F)(F)F)c3n2)CC1` [Example 64, 1-(4-(4-(2-acryloyl-2,7-diazazospiro [3.5]nonan-7-yl)-7-(5-methyl-1H-indazole-4-yl)-8-(2,2,2-trifluoroethoxy)-6-vinylquinazolin-2-yl)piperidin-1-yl) propyl-2-en-1-one], the figures for the IC50 in the experiment with MIA-PACA-2 cells and in the experiment on H358 cells were 57.1 nM and 16.6 nM, respectively.
With `C=CC(=O)N1CC2(CCN(c3nc(C4CCN(C5COC5)CC4)nc4c(OCC(F)(F)F)c(-c5c(C)ccc6[nH]ncc56)c(C=C)cc34)CC2)C1` [Example 65, 1-(7-(7-(5-methyl-1H-indazol-4-yl)-2-(1-(oxacyclobutan-3-yl)piperidin-4-yl)-8-(2,2,2-trifluoroethoxy)-6-vinylquinazolin-4-yl)-2,7-diazspiro [3.5]nonan-2-yl) propyl-2-en-1-one], the IC50 is 8.9 nM with MIA-PACA-2 cells and 4.4 nM in the experiment on H358 cells.
In the case of `C=CC(=O)N1CC2(CCN(c3nc(C4CCN(C5CCN(C)CC5)CC4)nc4c(OCC(F)(F)F)c(-c5c(C)ccc6[nH]ncc56)c(C=C)cc34)CC2)C1` [Example 66, 1-(7-(7-(5-methyl-1H-indazol-4-yl)-2-(1′-methyl-[1,4-bipiperidine]-4-yl)-8-(2,2,2-trifluoroethoxy)-6-vinylquinazolin-4-yl)-2,7-diazspiro [3.5]nonan-2-yl) propyl-2-en-1-one], the IC50 worked out at 8.5 nM in the experiment with MIA-PACA-2 cells and 11.5 nM with H358 cells.
Take `C=CC(=O)N1CC2(CCN(c3nc(C4CCN(C5CCC(C#N)CC5)CC4)nc4c(OCC(F)(F)F)c(-c5c(C)ccc6[nH]ncc56)c(C=C)cc34)CC2)C1` (stereo not drawn) [Example 67, 4-(4-(4-(2-acryloyl-2,7-diazazospiro [3.5]nonan-7-yl)-7-(5-methyl-1H-indazole-4-yl)-8-(2,2,2-trifluoroethoxy)-6-vinylquinazolin-2-yl)piperidin-1-yl) cyclohexane-1-methylnitrile]: the IC50 stood at 6.9 nM in the experiment with MIA-PACA-2 cells and 4.6 nM with H358 cells.
Take `C=CC(=O)N1CC2(CCN(c3nc(C4CCN(C(C)CO)CC4)nc4c(OCC(F)(F)F)c(-c5c(C)ccc6[nH]ncc56)c(C=C)cc34)CC2)C1` (stereo not drawn) [Example 68, l-(7-(2-(l-(1-hydroxypropane-2-yl)piperidin-4-yl)-7-(5-methyl-1H-indazol-4-yl)-8-(2,2,2-trifluoroethoxy)-6-vinylquinazolin-4-yl)-2,7-diazspiro [3.5]nonan-2-yl) propyl-2-en-1-one]: the IC50 came to 2.4 nM in the experiment with MIA-PACA-2 cells and 1.6 nM in the experiment on H358 cells.
Turning to `C=CC(=O)N1CC2(CCN(c3nc(C4CCN(C5CCC5)CC4)nc4c(OCC(F)(F)F)c(-c5c(C)ccc6[nH]ncc56)c(C=C)cc34)CC2)C1` [Example 69, 1-(7-(2-(1-cyclobutylpiperidin-4-yl)-7-(5-methyl-1H-indazol-4-yl)-8-(2,2,2-trifluoroethoxy)-6-vinylquinazolin-4-yl)-2,7-diazspiro [3.5]nonan-2-yl) propyl-2-en-1-one], the concentration for half-maximal inhibition (IC50) in the experiment with MIA-PACA-2 cells came to 3.7 nM; in the experiment on H358 cells, 3.4 nM.
For `C=CC(=O)N1CC2(CCN(c3nc(C4CCN(CC(=O)C(C)(C)C)CC4)nc4c(OCC(F)(F)F)c(-c5c(C)ccc6[nH]ncc56)c(C=C)cc34)CC2)C1` [Example 70, 1-(4-(4-(2-acryloyl-2,7-diazspiro [3.5]nonan-7-yl)-7-(5-methyl-1H-indazole-4-yl)-8-(2,2,2-trifluoroethoxy)-6-vinylquinazolin-2-yl)piperidin-1-yl)-3,3-dimethylbutane-2-one], the IC50 in the experiment with MIA-PACA-2 cells stood at 13.7 nM; in the experiment with H358 cells, 15.5 nM.
For the compound `C=CC(=O)N1CC2(CCN(c3nc(C4CCN(C(C)C)CC4)nc4c(OCC(F)(F)F)c(-c5c(C)ccc6[nH]ncc56)c(C=C)cc34)CC2)C1` [Example 71], the values for the IC50 in the experiment with MIA-PACA-2 cells and in the experiment on H358 cells were 8.3 nM and 7.4 nM, respectively.

Broadly, the IC50 is the midpoint of a concentration-inhibition curve. Read a low IC50 as higher potency.

The record behind these values is patent publication US20230219956A1 (BETTA PHARMACEUTICALS CO.,LTD, priority 2019, published 2023).
